Data on five compounds can be found in US20040209239A1, “Methods and compositions fir identifying episomal dna virus infection treatment” (priority 2001, published 2004).

One assay has as its system EBV genome. Kind of assay: Stability of the EBV genome in cells. The assay is classed as cell-based, Epstein-Barr virus. The conditions noted are these: FIG. 5A and FIG. 5B.
A further assay relates to episomal plasmids. Kind of assay: Transient replication of episomal plasmids. The assay is classed as cell-based.
For a further assay, the system named is OriP. In words: OriP plasmid maintenance in cells. The assay is classed as cell-based, Epstein-Barr virus. Conditions: for OriP maintenance, dependence on nonamer binding sites: D98/HR1 cells transfected with OriP wt or OriPΔa,b,c, 3 weeks after sorting, Southern analysis of Hirt lysates; for plasmid maintenance of OriP: FIG. 4 and FIG. 5C. From the text:
A green fluorescent protein (GFP) reporter gene is inserted into the polylinker site of plasmid pREP10 (Invitrogen), which contains the EBV oriP and EBNA-1 under the control of its weak, naturally-occurring viral promoter. The GFP reporter gene allows for rapid flow cytometric (FACS) analysis to determine the percent of cells carrying the DNA vector. FACS is also used to cell sort, i.e., to obtain a homogeneous population of cells all expressing GFP and therefore carrying the vector.
The recombinant episomal plasmid GFP-REP10 is transfected into recipient mammalian or avian host cells and cells are sorted after 48 hours to obtain a homogeneous population (100%) expressing the GFP label. Test compounds, individually or in combination, or controls are applied to samples of the culture medium to test for the effect on GFP positive cells. Cells treated with test compounds, or with positive and/or negative controls, are assayed for the rate of loss of GFP over several days to weeks. These rates of loss are compared for each test compound with the relevant controls to determine novel test compounds that enhance or decrease episomal maintenance in the cell.
Confirmation of episomal DNA is determined at the experimental endpoint of between 3 to 5 weeks, using the HIRT extraction and Southern blotting procedure, described in e.g., Yates et al, 2000, J. Virol. 74, 4512-4522.
In one study, D98/HR1 cells were transfected with OriP wt or OriPΔa,b,c, GFP-selected by FACS, and cultured in the presence of niacinamide (PARP inhibitor), hydroxyurea (PARP stimulator), or 3-AB (PARP inhibitor). OriP maintenance was assayed 3 weeks after sorting by Southern analysis of Hirt lysates.

Another assay relates to TRF1. Kind of assay: ChIP assay of TRF1 association with OriP in D98/HR1 cells. The conditions noted are these: treated D98/HR1 cells. The assay is classed as cell-based. The procedure: (§1) To determine if telomere associated proteins EBNA1, TRF2 and Tankyrase associate with EBV oriP episomes in naturally infected cell lines, the chromatin immunoprecipitation) (CHIP) assay was used with EBV positive RAJI Burkitt lymphoma cell lines that contain ˜5-25 copies of episomal EBV. Chromatin immunoprecipitation was performed as described in Galande, S. & Kohwi-Shigematsu, 1999 J. Biol. Chem. 274, 20521-20528.
(§2) Briefly, asynchronous RAJI cells were cross-linked with formaldehyde, sonicated to generate chromatin DNA fragments of 400 bp average size, and then immunoprecipitation with various antibodies to FLAG-M2 (Sigma), EBNA1, Tankyrase, or TRF2. DNA fragments isolated from immunoprecipitation protein-DNA complexes (three-fold dilutions for each set of antibodies) were then amplified for 24 cycles by PCR with primer pairs specific for the DS region of EBV oriP (corresponding to EBV nucleotides 8586-9206, nucleotides 1-621 SEQ ID NO: 1), or for control EBV sequences surrounding the BRLF1 promoters (nucleotides 106,094-106,420, nucleotides 1-317 SEQ ID NO: 2), over 90 kb away from oriP and unlikely to share OriP binding proteins.
(§3) EBNA1, hRap1,and TRF1 association with OriP were determined by ChIP assay in cells that were treated with hydroxyurea or niacinamide. […]

A further assay concerns histone H3. In words: OriP-associated histone modification by ChIP assay in Akata cells. The assay is classed as cell-based. The procedure:
Akata cells were cultured without treatment, with H2O2, hydroxyurea (HU) or niacinamide as indicated above each lane. OriP-associated histone modification was measured by ChIP assay with antibodies specific for Flag, Acetylated H3, acetylated H4, or S10 phosphorylated H3.

For assay [1], the system named is EBNA1. Kind of assay: DS DNA affinity chromatography in the presence or absence of NAD. The assay is classed as binding, Epstein-Barr virus. The conditions noted are these: 1 mM NAD. The procedure:
To identify cellular proteins that mediate EBNA1 functions at OriP, a stable HeLa cell derivative (SL1) was established expressing epitope tagged EBNA1 (HA-EBNA1) and episomal OriP. SL1 cells were generated by retroviral transformation of HeLa S3 cells with HA-EBNA1 lacking Gly-Ala repeats (Δ102-325). HeLa and SL1 cell nuclear extracts were prepared by the method of Dignam, J. D. et al, 1983 Nucl. Acids Res. 11, 1475-1489. Nuclear pellets were solubilized by sonication in RIPA buffer (1% Triton×100, 0.1% sodium deoxycholate, 140 mM NaCl, 50 mM Hepes (pH 7.5), 1 mM EDTA, 1 mM DTT, and protease inhibitors-1 mM PMSF, 1 mM benzamidine, 10 μg/ml aprotinin, 20 μg/ml leupeptine, 1 μg/ml pepstatin, 25 μg/ml TLCK and 50 μg/ml TPCK). Sonicated nuclear pellets were clarified by centrifugation at 39,000×g for 30 minutes. This solubilized nuclear pellets were combined with nuclear extract (1:1) made 6 mM MgCl2, and preincubated with 400 μg/ml sonicated herring sperm DNA for 30 minutes. Biotinylated PCR fragments were coupled to streptavidin conjugated magnetic bead (Dynal) and then incubated nuclear extracts for 45 minutes at 25° C. The bound material was washed 4 times in D150 buffer (20 mM HEPES, pH7.9, 20% glycerol, 0.2 mM EDTA, 150 mM KCl, 1 mM DTT, 1 mM PMSF) and then eluted with D1000 (same as above except 1000 mM KCl). […]

In the next assay the test system is hRap1. In words: ChIP assay of hRap1 association with OriP in D98/HR1 cells. The assay is classed as cell-based, human. The conditions noted are these: treated D98/HR1 cells.
The subject of another assay is MCM3. In words: MCM3 binding to DS in Akata cells. The conditions noted are these: preliminary results. The assay is classed as cell-based. The procedure:
(§4) EBNA1 and MCM3 binding to DS were assayed in Akata cells cultured with no treatment, with hydroxyurea, or with niacinamide. […] Future quantification of these preliminary results will be necessary to determine the significance of MCM3 and other MCM complex components interaction with OriP.

The test system of assay [2] is EBNA1. In words: ChIP assay of EBNA1 association with OriP in D98/HR1 cells. The assay is classed as cell-based, Epstein-Barr virus. Conditions: treated D98/HR1 cells. On the procedure: as §1, §2, §3
In assay [3] the test system is EBNA1. Kind of assay: EBNA1 binding to DS in Akata cells. The assay is classed as cell-based, Epstein-Barr virus. Conditions: preliminary results. The procedure: as §4

For `NC(=O)c1cccc(N)c1` [3-AB, 3-aminobenzamide], the “stability of the EBV genome in cells” value in the assay on EBV genome is “enhanced the stability of the EBV genome”. The “transient replication of episomal plasmids” value in the assay on episomal plasmids is “weakly inhibit transient replication”. Also, in the assay with OriP, the “long term maintenance of episomal plasmids” value is given as “stabilize long term maintenance” and the “OriP maintenance, dependence on nonamer binding sites” value is “enhanced plasmid maintenance was dependent upon the nonamer binding sites in OriP”.
As to `OO` [H2O2, hydrogen peroxide], the “TRF1 association with OriP” value in the assay with TRF1 was “TRF1 binding was reduced”. Also, in the assay on histone H3, the “OriP-associated S10 phosphorylation of histone H3” value is “inhibited H3 acetylation and S10 phosphorylation”; the “OriP-associated histone H3 acetylation” value was “inhibited H3 acetylation”.
For `NC(=O)c1ccc[n+]([C@@H]2O[C@H](COP(=O)([O-])OP(=O)(O)OC[C@H]3O[C@@H](n4cnc5c(N)ncnc54)[C@H](O)[C@@H]3O)[C@@H](O)[C@H]2O)c1` [NAD], in the assay with EBNA1 [1], the “association of EBNA1 with DS” value is reported as “strong inhibit the association of EBNA1”.
For `NC(=O)NO` [hydroxyurea], the “TRF1 association with OriP” value in the assay with TRF1 was “reduced TRF1 association”. The “hRap1 association with OriP” value in the assay with hRap1 was “not EBNA1 or hRap1”. In addition, in the assay on MCM3, the “MCM3 binding to DS” value was “decrease in EBNA1 and MCM3 association”. Moreover, the “stability of the EBV genome in cells” value in the assay on EBV genome was “decreased the stability of the EBV genome”. In addition, the “OriP-associated S10 phosphorylation of histone H3” value in the assay with histone H3 is recorded as “inhibited S10 phosphorylation of histone H3”. Further, the “EBNA1 association with OriP” value with EBNA1 [2] was “not EBNA1”. For the same compound, the “EBNA1 binding to DS” value in the assay with EBNA1 [3] is “decrease in EBNA1 and MCM3 association”. In addition, the “plasmid maintenance of OriP” value in the assay with OriP is on record as “decreased the maintenance of the OriP plasmid”.
As to `NC(=O)c1cccnc1` [niacinamide], the “MCM3 binding to DS” value in the assay with MCM3 was “increased the MCM3 binding relative to EBNA1”. Also, the “stability of the EBV genome in cells” value in the assay with EBV genome was “enhanced stability of the EBV genome”. Further, the “transient replication of episomal plasmids” value with episomal plasmids is on record as “weakly inhibit transient replication”. In addition, in the assay on OriP, the “long term maintenance of episomal plasmids” value is reported as “stabilize long term maintenance”; the “OriP maintenance, dependence on nonamer binding sites” value was “enhanced plasmid maintenance was dependent upon the nonamer binding sites in OriP”; the “plasmid maintenance of OriP” value is recorded as “increased OriP maintenance”.
